Consider one compound from patent publication US9878986B2, “Compounds for selective histone deacetylase inhibitors, and pharmaceutical composition comprising the same” (CHONG KUN DANG PHARMACEUTICAL CORP., priority 2013, dated 2018).

Assay [1] concerns the target T1, HDAC 5 (Homo sapiens, UniProt Q9UQL6).
T1 construct: Reaction Biology Corp
The assay is described as follows: HDAC panel by Reaction Biology Corp., HDAC 5. The class given is biochemical. Particulars: read-out: HDAC inhibitory activities, HDAC 5. An excerpt: The inhibitory activities of Compounds 255 and 374 on all HDACs were confirmed (by Reaction Biology Corp.).

The test system of assay [2] is colitis models. The assay is described as follows: Colitis models (dextran sulfate sodium). The class given is in vivo, C57BL/6J mice. The following applies: intraperitoneally twice a day after 8 days from supply of DSS; disease-induced models lost to 17.5 to 18 g. How it is done: 3.0% dextran sulfate sodium (DSS: MP biomedicals) was dissolved in deionized water and supplied to 9-week-old C57BL/6J mice for 5 to 7 days and then water was normally supplied to the mice to induce colitis in animal models. The experimental animals were classified into a solvent control group and each group treated with Compound 254 and Compound 255 as test materials based on the body weight of the experimental animals. The test material was intraperitoneally injected twice a day after 8 days from the supply of DSS. The evaluation of the efficacy in colitis models was made by determining the degree to which the weight, lost due to the disease, was recovered to normal level, and the results are shown in FIG. 6.

Molecules are shown by their SMILES.

T1 sequence (Q9UQL6 whole entry): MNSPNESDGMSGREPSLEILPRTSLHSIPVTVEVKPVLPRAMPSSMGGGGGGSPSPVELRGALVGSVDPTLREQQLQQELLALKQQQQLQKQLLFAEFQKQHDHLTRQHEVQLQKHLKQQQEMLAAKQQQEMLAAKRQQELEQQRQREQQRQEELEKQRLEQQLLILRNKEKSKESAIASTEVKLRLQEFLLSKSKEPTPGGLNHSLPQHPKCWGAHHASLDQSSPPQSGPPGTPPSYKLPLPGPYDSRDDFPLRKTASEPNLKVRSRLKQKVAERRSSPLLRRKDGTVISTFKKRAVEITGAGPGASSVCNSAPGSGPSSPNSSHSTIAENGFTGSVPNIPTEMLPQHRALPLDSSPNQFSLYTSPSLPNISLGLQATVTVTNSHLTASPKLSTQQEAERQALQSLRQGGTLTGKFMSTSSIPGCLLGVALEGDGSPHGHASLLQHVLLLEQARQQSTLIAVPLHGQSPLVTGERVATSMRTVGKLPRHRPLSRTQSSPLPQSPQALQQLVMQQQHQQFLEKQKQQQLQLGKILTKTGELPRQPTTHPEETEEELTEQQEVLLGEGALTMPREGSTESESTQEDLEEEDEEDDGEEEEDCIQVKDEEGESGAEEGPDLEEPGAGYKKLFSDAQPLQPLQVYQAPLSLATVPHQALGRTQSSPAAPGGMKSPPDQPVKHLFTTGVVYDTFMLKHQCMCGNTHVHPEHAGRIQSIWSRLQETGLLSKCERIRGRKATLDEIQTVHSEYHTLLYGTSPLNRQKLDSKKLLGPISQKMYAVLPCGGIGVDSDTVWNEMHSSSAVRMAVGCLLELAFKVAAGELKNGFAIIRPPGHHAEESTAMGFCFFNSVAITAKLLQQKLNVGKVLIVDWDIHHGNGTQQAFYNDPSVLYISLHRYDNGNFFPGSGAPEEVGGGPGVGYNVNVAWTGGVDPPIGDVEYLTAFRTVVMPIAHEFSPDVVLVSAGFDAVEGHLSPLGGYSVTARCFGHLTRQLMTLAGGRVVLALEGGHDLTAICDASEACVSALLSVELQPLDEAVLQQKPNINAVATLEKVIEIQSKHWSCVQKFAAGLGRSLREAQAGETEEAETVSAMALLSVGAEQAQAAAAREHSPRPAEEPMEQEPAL

As to `O=C(NO)c1ccc(CN(C(=O)N2CCOCC2)c2cccc(Br)c2)cc1` [Compound 255, N-(3-bromophenyl)-N-(4-(hydroxycarbamoyl)benzyl)morpholine-4-carboxamide], the IC50 in assay [1] came to 8.27 µM. In assay [2], the “weight recovered to” value is recorded as 19 to 19.5 g.
